Assays:
Prevotella (−) = assay: porfimer sodium aPDT, planktonic culture; format: cell-based; conditions: 630 nm, kill at 75 J/cm2 (light dose 50-100 J/cm2), porfimer sodium 150 μg/mL
Method: (§1) Bacteria were routinely cultured using tryptic soy broth or agar at 37° C. in a 5% CO2 incubator. Bacteria were isolated and suspended with 0.9% NaCl to an Optical Density (OD) of 0.1 taken at 630 nm, to generate the inoculum used for either planktonic or biofilm assays.
(§2) Experiments using planktonic cultures were carried out using M. catarrhalis, as a standard for further comparisons and to determine the effective drug concentration, porfimer sodium incubation time and light dose parameters which would provide an effective cell kill at the level of 5-7 logs. Once determined the experiments were repeated for all other bacterial strains examined.
(§3) The colony forming units (CFU) per mL of the starting inoculum for every experiment was determined by dilution plating. […]
(§4) Bacteria were exposed to 630 nm laser light via a fiber optic with a lens affixed to the distal end to provide a uniform diverging light field. […] Power output of the laser was measured using a UDT/Gamma Scientific 371 optical power meter and an integrating sphere. […]
(§5) Biofilms were formed on glass coupons in culture dishes containing a bacterial inoculum for 48 hours under conditions specific to the strain. […] Power output of the laser was measured using a UDT/Gamma Scientific 371 optical power meter and an integrating sphere. […]

M. catarrhalis (−) [1] = assay: porfimer sodium aPDT, 48 hour biofilm culture; format: cell-based, Moraxella catarrhalis; conditions: 630 nm, kill at 75 J/cm2 (light dose 75-100 J/cm2), porfimer sodium 250 μg/mL
Method: as §1
(§6) The colony forming units (CFU) per mL of the starting inoculum for every experiment was determined by dilution plating. Control samples were exposed to laser at 630 nm in the absence of porfimer sodium, porfimer sodium in the absence of laser exposure, or in saline alone in the absence of porfimer sodium and 630 nm laser light. All experimental samples were dilution plated to enumerate viable CFU's. Three independent replicates were performed for each reaction condition per strain per assay. […]
as §4, §5

M. catarrhalis (−) [2] = assay: porfimer sodium aPDT, planktonic culture; format: cell-based, Moraxella catarrhalis
Method: as §1, §2, §3, §4, §5

P. anaerobius (+) = assay: porfimer sodium aPDT, planktonic culture; format: cell-based, Peptostreptococcus anaerobius; conditions: 630 nm, kill at 75 J/cm2 (light dose 50-100 J/cm2), porfimer sodium 150 μg/mL
Method: as §1, §2, §3, §4, §5

S. pneumo (+) = assay: porfimer sodium aPDT, planktonic culture; format: cell-based, Streptococcus pneumoniae; conditions: 630 nm, 100 J/cm2, porfimer sodium 125 μg/mL
Method: as §1, §2, §3, §4, §5

[3] = format: in vivo, Yorkshire pigs; conditions: abraded wounds, Example 3
Source text: This study evaluated the antimicrobial activity and local safety of porfimer sodium when applied to abraded wounds in Yorkshire pigs.
On Day −2 of the study, pigs were anesthetized and the skin aseptically prepared. Superficial wounds were created using the tape strip method until punctate bleeding was observed. Also on Day −2, eight wounds per pig were inoculated with one of three bacterial cultures (Haemophilus influenza, Moraxella catarrhalis, or Staphylococcus aureus) at a concentration of 10^7-10^8 CFUs per mL. There were two control sites on each side. […] The wounds were covered, analgesia in the form of buprenorphine (IM, 0.03 mg/kg) was provided, and the animals were recovered from anesthesia.

S. Mutans (+) = assay: porfimer sodium aPDT, planktonic culture; format: cell-based, Streptococcus Mutans; conditions: 630 nm, 200 J/cm2, porfimer sodium 125 μg/mL
Method: as §1, §2, §3, §4, §5

S. aureus (+) = assay: porfimer sodium aPDT, 48 hour biofilm culture; format: cell-based, Staphylococcus aureus; conditions: 630 nm, kill at 75 J/cm2 (light dose 75-100 J/cm2), porfimer sodium 250 μg/mL
Method: as §1, §6, §4, §5

E. coli (−) = assay: porfimer sodium aPDT, planktonic culture; format: cell-based, Escherichia coli; conditions: 630 nm, 200 J/cm2, porfimer sodium 125 μg/mL
Method: as §1, §2, §3, §4, §5

B. atrophaeus (+) = assay: porfimer sodium aPDT, planktonic culture; format: cell-based, Bacillus atrophaeus; conditions: 630 nm, 200 J/cm2, porfimer sodium 125 μg/mL
Method: as §1, §2, §3, §4, §5

[4] = system: planktonic and biofilm bacterial populations; assay: porfimer sodium photodynamic therapy in vitro, overall summary; format: cell-based
Method: This study evaluated the bactericidal efficacy of porfimer sodium based photodynamic therapy against standard and antibiotic resistant bacterial strains in planktonic and biofilm cultures. The primary efficacy endpoint was the overall cell kill analysis as determined by the enumeration of viable colony forming assays post PDT treatments as analyzed using the unpaired students two-tailed t test on log transformed data.
Planktonic cultures were prepared by adding bacteria to glass vials with saline and porfimer sodium to a final concentration ranging from 125 μg/ml to 150 μg/ml.
Biofilms were formed on glass coupons in culture dishes containing a bacterial inoculum for 48 hours under conditions specific to the strain. The glass coupon attached biofilms were then rinsed with saline, by dipping method, prior to the administration of the porfimer sodium. The biofilms were incubated in the dark for 15-30 minutes with a reconstituted saline solution of porfimer sodium at final concentrations ranging from 75 μg/ml-250 μg/ml. The porfimer sodium treated biofilms were then exposed to light doses at 630 nm light of 50-200 J/cm^2 at a power density of 150 milliwatts per cm^2. […] Power output of the laser was measured using a UDT/Gamma Scientific 371 optical power meter and an integrating sphere. […]

Substance: porfimer sodium
- Rate of kill (Prevotella (−)): 7Log
- Rate of kill (M. catarrhalis (−) [1]): >6Log
- bacterial cell kill (M. catarrhalis (−) [2]; 125 μg/ml, incubated 10 minutes, light doses 50-100 J/cm^2): 6-7 logs
- Rate of kill (M. catarrhalis (−) [2]; 630 nm, 200 J/cm2, porfimer sodium 125 μg/mL): 7Log
- Rate of kill (P. anaerobius (+)): 5Log
- Rate of kill (S. pneumo (+)): >4Log
- histopathological observations, treated sites vs control sites [3]: no significant difference between treated sites and control sites
- Rate of kill (S. Mutans (+)): >7Log
- Rate of kill (S. aureus (+)): >6Log
- Rate of kill (E. coli (−)): <1Log
- Rate of kill (B. atrophaeus (+)): 6Log
- log reductions in bacterial loads [4]: 5-6 log
- reduction in bacterial loads [4]: > 99%
